Measurements as given in patent publication US8835428B2, “Diacylglycerol acyltransferase inhibitors” (Piramal Enterprises Limited, priority 2008, dated 2014).

target: T1, hDGAT1 (Homo sapiens, UniProt O75907); assay: In-vitro DGAT1 assay (hDGAT1 microsomes from Sf9 cells, 14C oleoyl CoA, triglyceride formation); format: biochemical; settings: At 1 μM
T1 construct: host or cells: Sf9 insect cells (baculovirus); microsomal preparation
T1 sequence (O75907 1-488): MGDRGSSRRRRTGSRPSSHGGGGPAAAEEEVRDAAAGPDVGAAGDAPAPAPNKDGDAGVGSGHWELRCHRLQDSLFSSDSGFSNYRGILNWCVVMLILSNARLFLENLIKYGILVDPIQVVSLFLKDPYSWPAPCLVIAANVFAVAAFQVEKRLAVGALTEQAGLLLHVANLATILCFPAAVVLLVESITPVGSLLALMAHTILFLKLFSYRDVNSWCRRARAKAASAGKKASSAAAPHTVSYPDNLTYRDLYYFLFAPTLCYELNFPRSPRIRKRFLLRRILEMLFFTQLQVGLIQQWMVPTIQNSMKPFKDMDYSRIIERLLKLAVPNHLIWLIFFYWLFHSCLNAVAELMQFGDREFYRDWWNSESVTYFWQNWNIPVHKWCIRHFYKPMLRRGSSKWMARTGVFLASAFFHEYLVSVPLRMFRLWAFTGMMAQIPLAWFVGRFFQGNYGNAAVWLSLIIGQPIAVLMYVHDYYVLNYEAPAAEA
Outline: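 Compounds tested in duplicate at 10, 5 and 1 μM for 10 min at 37 °C. Reaction: Sf9-expressed hDGAT1 microsomes (2.5–10 μg), [14C]oleoyl-CoA plus 409.5–1638 μM dioleoylglycerol, pH 7.4 Tris-HCl with fatty-acid-free BSA. Radiolabelled triglyceride extracted into heptane and scintillation-counted.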

For `COC(=O)c1ccc(NC(=O)Nc2ccc(-c3cc(C(=O)NC(C(=O)OC)C(C)C)on3)cc2)cc1` (stereo not drawn) [Example 283, Methyl 4-(3-(4-(5-(1-methoxy-3-methyl-1-oxobutan-2-ylcarbamoyl)isoxazol-3-yl)phenyl)ureido)benzoate], which inhibition at 1 µM is on record?
Its inhibition at 1 µM is 0 to 50%.

Which inhibition at 1 µM does the source give for `CC(C)C(NC(=O)c1cc(-c2ccc(NC(=O)Nc3ccc(OC(F)(F)F)cc3Cl)cc2)no1)C(=O)O` (stereo not drawn) [Example 287, 2-(3-(4-(3-(2-chloro-4-(trifluoromethoxy)phenyl)ureido)phenyl)isoxazole-5-carboxamido)-3-methylbutanoic acid] here?
The inhibition at 1 µM was 75 to 100%.

For `CC(C)C(NC(=O)c1cc(-c2ccc(NC(=O)Nc3ccc(OC(F)(F)F)c(Cl)c3)cc2)no1)C(=O)O` (stereo not drawn) [Example 289, (3-(4-(3-(3-chloro-4-(trifluoromethoxy)phenyl)ureido)phenyl)isoxazole-5-carboxamido)-3-methylbutanoic acid], which “% inhibition of hDGAT1” value is on record?
The value was “+++ (>75% Inhibition ≦100)”.

`CC(C)C(NC(=O)c1cc(-c2ccc(NC(=O)Nc3ccccc3-c3ccccc3)cc2)no1)C(=O)O` (stereo not drawn) [Example 291, 2-(3-(4-(3-Biphenyl-2-ylureido)phenyl)isoxazole-5-carboxamido)-3-methylbutanoic acid] was tested. Which inhibition at 1 µM did it give?
The inhibition at 1 µM was 75 to 100%.

`CC(C)C(NC(=O)c1cc(-c2ccc(NC(=O)Nc3ccc(C4CCCCC4)cc3)cc2)no1)C(=O)O` (stereo not drawn) [Example 293, 2-(3-(4-(3-(4-cyclohexylphenyl)ureido)phenyl)isoxazole-5-carboxamido)-3-methylbutanoic acid] was tested. Which inhibition at 1 µM did it give?
The inhibition at 1 µM was 75 to 100%.

With `Cc1cc(OC(F)(F)F)ccc1NC(=O)Nc1ccc(-c2cc(C(=O)NC(C(=O)O)C(C)C)on2)cc1` (stereo not drawn) [Example 295, 3-methyl-2-(3-(4-(3-(2-methyl-4-(trifluoromethoxy)phenyl)ureido)phenyl)isoxazole-5-carboxamido)butanoic acid] as the molecule, how does the inhibition at 1 µM read?
Its inhibition at 1 µM is 75 to 100%.

For `CC(C)C(NC(=O)c1cc(-c2ccc(NC(=O)c3ccc(C(C)(C)C)cc3)cc2)no1)C(=O)O` (stereo not drawn) [Example 297, 2-(3-(4-(4-tert-butylbenzamido)phenyl)isoxazole-5-carboxamido)-3-methylbutanoic acid], which inhibition at 1 µM is on record?
Its inhibition at 1 µM is 75 to 100%.

Which inhibition at 1 µM does the source give for `C=C(NC(=O)c1cc(-c2ccc(NC(=O)Nc3ccccc3F)cc2)no1)C(=O)O` [Example 302, 2-(3-(4-(3-(2-Fluorophenyl)ureido)phenyl)isoxazole-5-carboxamido) acrylic acid] here?
Its inhibition at 1 µM is 50 to 75%.

For `C=C(NC(=O)c1cc(-c2ccc(NC(=O)Nc3ccc(C)cc3)cc2)no1)C(=O)OC` [Example 303, Methyl 2-(3-(4-(3-p-tolylureido)phenyl)isoxazole-5-carboxamido) acrylate], which “% inhibition of hDGAT1” value is on record?
Its value is “+ (>0% Inhibition ≦50)”.

With `C=C(NC(=O)c1cc(-c2ccc(NC(=O)Nc3ccc(C)cc3)cc2)no1)C(=O)O` [Example 304, 2-(3-(4-(3-p-tolylureido)phenyl)isoxazole-5-carboxamido)acrylic acid] as the molecule, how does the inhibition at 1 µM read?
The inhibition at 1 µM was 50 to 75%.

Which inhibition at 1 µM does the source give for `COC(=O)[C@H](C(C)C)N(C)C(=O)c1cc(-c2ccc(NC(=O)Nc3ccccc3F)cc2)no1` [Example 305, (S)-Methyl 2-(3-(4-(3-(2-fluorophenyl)ureido)phenyl)-N-methylisoxazole-5-carboxamido)-3-methylbutanoate] here?
Its inhibition at 1 µM is 50 to 75%.

Which inhibition at 1 µM does the source give for `CC(C)[C@@H](C(=O)O)N(C)C(=O)c1cc(-c2ccc(NC(=O)Nc3ccccc3F)cc2)no1` [Example 306, (S)-2-(3-(4-(3-(2-fluorophenyl)ureido)phenyl)-N-methylisoxazole-5-carboxamido)-3-methylbutanoic acid] here?
Its inhibition at 1 µM is 50 to 75%.

How did the inhibition at 1 µM turn out when `COC(=O)[C@H](C(C)C)N(C)C(=O)c1cc(-c2ccc(NC(=O)Nc3ccc(F)cc3)cc2)no1` [Example 307, (S)-methyl 2-(3-(4-(3-(4-fluorophenyl)ureido)phenyl)-N-methylisoxazole-5-carboxamido)-3-methylbutanoate] was run?
The inhibition at 1 µM was 50 to 75%.

Which inhibition at 1 µM does the source give for `CC(C)[C@@H](C(=O)O)N(C)C(=O)c1cc(-c2ccc(NC(=O)Nc3ccc(F)cc3)cc2)no1` [Example 308, (S)-2-(3-(4-(3-(4-fluorophenyl)ureido)phenyl)-N-methylisoxazole-5-carboxamido)-3-methylbutanoic acid] here?
The inhibition at 1 µM was 50 to 75%.

`COC(=O)[C@H](C(C)C)N(C)C(=O)c1cc(-c2ccc(NC(=O)Nc3cccc(C(F)(F)F)c3)cc2)no1` [Example 309, (S)-methyl 3-methyl-2-(N-methyl-3-(4-(3-(3-(trifluoromethyl)phenyl)ureido)phenyl)isoxazole-5-carboxamido)butanoate] was tested. Which inhibition at 1 µM did it give?
Its inhibition at 1 µM is 50 to 75%.

How did the inhibition at 1 µM turn out when `CC(C)[C@@H](C(=O)O)N(C)C(=O)c1cc(-c2ccc(NC(=O)Nc3cccc(C(F)(F)F)c3)cc2)no1` [Example 310, (S)-3-methyl-2-(N-methyl-3-(4-(3-(3-(trifluoromethyl)phenyl)ureido)phenyl)isoxazole-5-carboxamido)butanoic acid] was run?
The inhibition at 1 µM was 50 to 75%.

For `COC(=O)[C@H](C(C)C)N(C)C(=O)c1cc(-c2ccc(NC(=O)NC3CCCCC3)cc2)no1` [Example 311, (S)-methyl 2-(3-(4-(3-cyclohexylureido)phenyl)-N-methylisoxazole-5-carboxamido)-3-methylbutanoate], which inhibition at 1 µM is on record?
Its inhibition at 1 µM is 50 to 75%.

Which inhibition at 1 µM does the source give for `CC(C)[C@@H](C(=O)O)N(C)C(=O)c1cc(-c2ccc(NC(=O)NC3CCCCC3)cc2)no1` [Example 312, (S)-2-(3-(4-(3-cyclohexylureido)phenyl)-N-methylisoxazole-5-carboxamido)-3-methylbutanoic acid] here?
Its inhibition at 1 µM is 0 to 50%.

For `CC(C)[C@@H](C(=O)O)N(C)C(=O)c1cc(-c2ccc(NC(=O)Nc3ccccc3Cl)cc2)no1` [Example 314, (S)-2-(3-(4-(3-(2-chlorophenyl)ureido)phenyl)-N-methylisoxazole-5-carboxamido)-3-methylbutanoic acid], which inhibition at 1 µM is on record?
Its inhibition at 1 µM is 50 to 75%.

`COC(=O)[C@H](NC(=O)c1cc(-c2ccc(NS(=O)(=O)c3ccccc3F)cc2)no1)C(C)C` [Example 315, (R)-methyl 2-(3-(4-(2-fluorophenylsulfonamido)phenyl)isoxazole-5-carboxamido)-3-methylbutanoate] was tested. Which inhibition at 1 µM did it give?
The inhibition at 1 µM was 0 to 50%.

same assay, conditions: At 5 μM

With `COC(=O)C(NC(=O)c1cc(-c2ccc(NC(=O)Nc3ccccn3)cc2)no1)C(C)C` (stereo not drawn) [Example 279, Methyl 3-methyl-2-(3-(4-(3-pyridin-2-ylureido)phenyl)isoxazole-5-carboxamido)butanoate] as the molecule, how does the inhibition at 5 µM read?
Its inhibition at 5 µM is 0 to 50%.

Which inhibition at 5 µM does the source give for `CC(C)C(NC(=O)c1cc(-c2ccc(NC(=O)Nc3ccccn3)cc2)no1)C(=O)O` (stereo not drawn) [Example 280, 3-methyl-2-(3-(4-(3-pyridin-2-ylureido)phenyl)isoxazole-5-carboxamido)butanoic acid] here?
The inhibition at 5 µM was 50 to 75%.

For `COC(=O)C(NC(=O)c1cc(-c2ccc(NC(=O)Nc3ccc(-c4cc(C(=O)NC(C(=O)OC)C(C)C)on4)cc3)cc2)no1)C(C)C` (stereo not drawn) [Example 281, 2-({3-[4-(3-{4-[5-(1-Methoxycarbonyl-2-methyl-propylcarbamoyl)-isoxazol-3-yl]-phenyl}-ureido)-phenyl]-isoxazol-5-carbonyl}-amino)-3-methyl-butyric acid methyl ester], which inhibition at 5 µM is on record?
Its inhibition at 5 µM is 0 to 50%.

Which inhibition at 5 µM does the source give for `CC(C)C(NC(=O)c1cc(-c2ccc(NC(=O)Nc3ccc(-c4cc(C(=O)NC(C(=O)O)C(C)C)on4)cc3)cc2)no1)C(=O)O` (stereo not drawn) [Example 282, 2-({3-[4-(3-{4-[5-(1-Carboxy-2-methyl-propylcarbamoyl)-isoxazol-3-yl]-phenyl}-ureido)-phenyl]-isoxazol-5-carbonyl}-amino)-3-methyl-butyric acid] here?
Its inhibition at 5 µM is 0 to 50%.

How did the inhibition at 5 µM turn out when `COC(=O)C(NC(=O)c1cc(-c2ccc(NC(=O)Nc3ccc(F)cc3C)cc2)no1)C(C)C` (stereo not drawn) [Example 284, Methyl 2-(3-(4-(3-(4-fluoro-2-methylphenyl)ureido)phenyl)isoxazole-5-carboxamido)-3-methylbutanoate] was run?
The inhibition at 5 µM was 50 to 75%.

`Cc1cc(F)ccc1NC(=O)Nc1ccc(-c2cc(C(=O)NC(C(=O)O)C(C)C)on2)cc1` (stereo not drawn) [Example 285, 2-(3-(4-(3-(4-fluoro-2-methylphenyl)ureido)phenyl)isoxazole-5-carboxamido)-3-methylbutanoic acid] was tested. Which inhibition at 5 µM did it give?
Its inhibition at 5 µM is 75 to 100%.

`COC(=O)[C@H](CO)NC(=O)c1cc(-c2ccc(NC(=O)Nc3ccccc3F)cc2)no1` [Example 298, (S)-Methyl 2-(3-(4-(3-(2-fluorophenyl)ureido)phenyl)isoxazole-5-carboxamido)-3-hydroxypropanoate] was tested. Which inhibition at 5 µM did it give?
Its inhibition at 5 µM is 50 to 75%.

`O=C(Nc1ccc(-c2cc(C(=O)N[C@@H](CO)C(=O)O)on2)cc1)Nc1ccccc1F` [Example 299, (S)-2-(3-(4-(3-(2-Fluorophenyl)ureido)phenyl)isoxazole-5-carboxamido)-3-hydroxypropanoic acid] was tested. Which inhibition at 5 µM did it give?
The inhibition at 5 µM was 50 to 75%.

Which inhibition at 5 µM does the source give for `CC(C)[C@H](NC(=O)c1cc(-c2ccc(NC(=O)Nc3ccccc3F)cc2)no1)C(=O)OC(C)(C)C` [Example 300, (S)-tert-butyl 2-(3-(4-(3-(2-fluorophenyl)ureido)phenyl)isoxazole-5-carboxamido)-3-methylbutanoate] here?
The inhibition at 5 µM was 50 to 75%.

`C=C(NC(=O)c1cc(-c2ccc(NC(=O)Nc3ccccc3F)cc2)no1)C(=O)OC` [Example 301, Methyl 2-(3-(4-(3-(2-fluorophenyl)ureido)phenyl)isoxazole-5-carboxamido)acrylate] was tested. Which inhibition at 5 µM did it give?
The inhibition at 5 µM was 50 to 75%.
